Test results: US20190322676A1, “CERAMIDE GALACTOSYLTRANSFERASE INHIBITORS FOR THE TREATMENT OF DISEASE” (BioMarin Pharmaceutical Inc., priority 2016, published 2019)

target: T1, human CGT (ceramide galactosyltransferase), CHO/CGT lysate (Homo sapiens, UniProt Q16880); test: CGT enzyme assay, RapidFire/MS/MS readout (Table 1 ranges with one asterisk *); assay type: biochemical; conditions: RapidFire method (range with one asterisk *)
T1 construct: Full-length human CGT cDNA was cloned into the BamH1/Xho1 site of pcDNA3.1 (+); expressed in transfected cells; host or cells: Chinese hamster ovary (CHO) cells; lysate prepared with M-PER
T1 sequence (Q16880 21-541): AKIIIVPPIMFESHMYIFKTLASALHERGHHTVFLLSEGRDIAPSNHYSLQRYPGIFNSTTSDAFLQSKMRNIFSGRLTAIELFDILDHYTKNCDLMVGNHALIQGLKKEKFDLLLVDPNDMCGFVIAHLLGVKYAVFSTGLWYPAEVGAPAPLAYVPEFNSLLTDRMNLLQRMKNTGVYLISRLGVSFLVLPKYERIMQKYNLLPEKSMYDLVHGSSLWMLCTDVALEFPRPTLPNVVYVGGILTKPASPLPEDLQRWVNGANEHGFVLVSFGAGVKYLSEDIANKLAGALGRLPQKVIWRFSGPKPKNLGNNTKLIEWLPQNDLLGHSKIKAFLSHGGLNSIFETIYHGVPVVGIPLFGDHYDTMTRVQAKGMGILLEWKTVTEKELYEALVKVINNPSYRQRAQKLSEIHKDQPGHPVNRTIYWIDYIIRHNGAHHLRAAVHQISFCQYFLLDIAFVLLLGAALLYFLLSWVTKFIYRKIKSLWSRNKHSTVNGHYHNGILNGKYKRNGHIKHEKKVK
Summary of the method: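 Lysate (4 μg) of CHO cells transfected with full-length human CGT incubated 1 h at 37 °C with compound (0.001–50 μM) in pH 7.2 HEPES buffer with 10 μM C6-NBD-dihydro-ceramide, 17.5 μM UDP-galactose, Mg2+/Mn2+, CHAPS, BSA, 0.5% DMSO; ** set also contained 0.01% Tween 80. Product quantified by RapidFire/MS/MS, normalized to internal standard; IC50 from sigmoidal variable-slope fits.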

| Compound | IC50 [µM] |
| --- | --- |
| NC1CCN(C(=O)[C@H](NS(=O)(=O)c2ccc3c(cnn3CC3CCCC3)c2)C(F)(F)c2ccc(-c3ccc(Cl)cc3)cc2)CC1 [Compound 95-2, (S)—N-(3-(4-aminopiperidin-1-yl)-1-(4′-chloro-[1,1′-biphenyl]-4-yl)-1,1-difluoro-3-oxopropan-2-yl)-1-(cyclopentylmethyl)-1H-indazole-5-sulfonamide] | 10 to 30 |
| NC1CCN(C(=O)[C@@H](NS(=O)(=O)c2ccc3cc(OC4CCCC4)ccc3c2)C(F)(F)c2ccc(OC3CCCCC3)cc2)CC1 [Compound 97-1, (R)—N-(3-(4-aminopiperidin-1-yl)-1-(4-(cyclohexyloxy)phenyl)-1,1-difluoro-3-oxopropan-2-yl)-6-(cyclopentyloxy)naphthalene-2-sulfonamide] | 1 to 10 |
| NC1CCN(C(=O)[C@H](NS(=O)(=O)c2ccc3cc(OC4CCCC4)ccc3c2)C(F)(F)c2ccc(OC3CCCCC3)cc2)CC1 [Compound 97-2, (S)—N-(3-(4-aminopiperidin-1-yl)-1-(4-(cyclohexyloxy)phenyl)-1,1-difluoro-3-oxopropan-2-yl)-6-(cyclopentyloxy)naphthalene-2-sulfonamide] | 1 to 10 |
| NC1CCN(C(=O)[C@@H](NS(=O)(=O)c2ccc3cc(OC4CCCC4)ccc3c2)C(F)(F)c2ccc(Cl)cc2)CC1 [Compound 98-1, (R)—N-(3-(4-aminopiperidin-1-yl)-1-(4-chlorophenyl)-1,1-difluoro-3-oxopropan-2-yl)-6-(cyclopentyloxy)naphthalene-2-sulfonamide] | 1 to 10 |
| NC1CCN(C(=O)[C@H](NS(=O)(=O)c2ccc3cc(OC4CCCC4)ccc3c2)C(F)(F)c2ccc(Cl)cc2)CC1 [Compound 98-2, (S)—N-(3-(4-aminopiperidin-1-yl)-1-(4-chlorophenyl)-1,1-difluoro-3-oxopropan-2-yl)-6-(cyclopentyloxy)naphthalene-2-sulfonamide] | 10 to 30 |
| NC1CCN(C(=O)[C@@H](NS(=O)(=O)c2ccc3c(cnn3CC3CCCC3)c2)C(F)(F)c2ccc(Cl)cc2)CC1 [Compound 99-1, (R)—N-(3-(4-aminopiperidin-1-yl)-1-(4-chlorophenyl)-1,1-difluoro-3-oxopropan-2-yl)-1-(cyclopentylmethyl)-1H-indazole-5-sulfonamide] | 1 to 10 |
| NC1CCN(C(=O)[C@H](NS(=O)(=O)c2ccc3c(cnn3CC3CCCC3)c2)C(F)(F)c2ccc(Cl)cc2)CC1 [Compound 99-2, (S)—N-(3-(4-aminopiperidin-1-yl)-1-(4-chlorophenyl)-1,1-difluoro-3-oxopropan-2-yl)-1-(cyclopentylmethyl)-1H-indazole-5-sulfonamide] | 30 to 100 |
| CN([C@H](C(=O)N1CCC(N)CC1)C(F)(F)c1ccc(Cl)cc1)S(=O)(=O)c1ccc2cc(OC3CCCC3)ccc2c1 [Compound 100-1, (R)—N-(3-(4-aminopiperidin-1-yl)-1-(4-chlorophenyl)-1,1-difluoro-3-oxopropan-2-yl)-6-(cyclopentyloxy)-N-methylnaphthalene-2-sulfonamide] | < 1 |
| CN([C@@H](C(=O)N1CCC(N)CC1)C(F)(F)c1ccc(Cl)cc1)S(=O)(=O)c1ccc2cc(OC3CCCC3)ccc2c1 [Compound 100-2, (S)—N-(3-(4-aminopiperidin-1-yl)-1-(4-chlorophenyl)-1,1-difluoro-3-oxopropan-2-yl)-6-(cyclopentyloxy)-N-methylnaphthalene-2-sulfonamide] | 10 to 30 |
| NC1CC2CCC(C1)N2C(=O)[C@@H](NS(=O)(=O)c1ccc2cc(OC3CCCC3)ccc2c1)C(F)(F)c1ccc(-c2ccc(Cl)s2)cc1 (stereo partly drawn) [Compound 101-1, N-((2R)-3-(3-amino-8-azabicyclo[3.2.1]octan-8-yl)-1-(4-(5-chlorothiophen-2-yl)phenyl)-1,1-difluoro-3-oxopropan-2-yl)-6-(cyclopentyloxy)naphthalene-2-sulfonamide] | < 1 |
| NC1CC2CCC(C1)N2C(=O)[C@H](NS(=O)(=O)c1ccc2cc(OC3CCCC3)ccc2c1)C(F)(F)c1ccc(-c2ccc(Cl)s2)cc1 (stereo partly drawn) [Compound 101-2, N-((2S)-3-(3-amino-8-azabicyclo[3.2.1]octan-8-yl)-1-(4-(5-chlorothiophen-2-yl)phenyl)-1,1-difluoro-3-oxopropan-2-yl)-6-(cyclopentyloxy)naphthalene-2-sulfonamide] | 1 to 10 |
| NC1CC2CCC(C1)N2C(=O)[C@@H](NS(=O)(=O)c1ccc2cc(OC3CCCC3)ccc2c1)C(F)(F)c1ccc(OC2CCCCC2)cc1 (stereo partly drawn) [Compound 102-1, N-((2R)-3-(3-amino-8-azabicyclo[3.2.1]octan-8-yl)-1-(4-(cyclohexyloxy)phenyl)-1,1-difluoro-3-oxopropan-2-yl)-6-(cyclopentyloxy) naphthalene-2-sulfonamide] | < 1 |
| NC1CC2CCC(C1)N2C(=O)[C@H](NS(=O)(=O)c1ccc2cc(OC3CCCC3)ccc2c1)C(F)(F)c1ccc(OC2CCCCC2)cc1 (stereo partly drawn) [Compound 102-2, N-((2S)-3-(3-amino-8-azabicyclo[3.2.1]octan-8-yl)-1-(4-(cyclohexyloxy)phenyl)-1,1-difluoro-3-oxopropan-2-yl)-6-(cyclopentyloxy)naphthalene-2-sulfonamide] | 1 to 10 |
| NC1CCN(C(=O)[C@@H](NS(=O)(=O)c2ccc(OCC3CCCCC3)cc2)C(F)(F)c2ccc(OC3CCCCC3)cc2)CC1 [Compound 103-1, (R)—N-(3-(4-aminopiperidin-1-yl)-1-(4-(cyclohexyloxy)phenyl)-1,1-difluoro-3-oxopropan-2-yl)-4-(cyclohexylmethoxy)benzenesulfonamide] | < 1 |
| NC1CCN(C(=O)[C@H](NS(=O)(=O)c2ccc(OCC3CCCCC3)cc2)C(F)(F)c2ccc(OC3CCCCC3)cc2)CC1 [Compound 103-2, (S)—N-(3-(4-aminopiperidin-1-yl)-1-(4-(cyclohexyloxy)phenyl)-1,1-difluoro-3-oxopropan-2-yl)-4-(cyclohexylmethoxy)benzenesulfonamide] | 30 to 100 |
| NC1CC2CCC(C1)N2C(=O)[C@@H](NS(=O)(=O)c1ccc(OCC2CCCCC2)cc1)C(F)(F)c1ccc(-c2ccc(Cl)s2)cc1 (stereo partly drawn) [Compound 104-1, N-((2R)-3-(3-amino-8-azabicyclo[3.2.1]octan-8-yl)-1-(4-(5-chlorothiophen-2-yl)phenyl)-1,1-difluoro-3-oxopropan-2-yl)-4-(cyclohexylmethoxy) benzenesulfonamide] | 1 to 10 |
| NC1CC2CCC(C1)N2C(=O)[C@H](NS(=O)(=O)c1ccc(OCC2CCCCC2)cc1)C(F)(F)c1ccc(-c2ccc(Cl)s2)cc1 (stereo partly drawn) [Compound 104-2, N-((2S)-3-(3-amino-8-azabicyclo[3.2.1]octan-8-yl)-1-(4-(5-chlorothiophen-2-yl)phenyl)-1,1-difluoro-3-oxopropan-2-yl)-4-(cyclohexylmethoxy)benzenesulfonamide] | 10 to 30 |
| NC1CC2CCC(C1)N2C(=O)[C@@H](NS(=O)(=O)c1ccc(OCC2CCCCC2)cc1)C(F)(F)c1ccc(OC2CCCCC2)cc1 (stereo partly drawn) [Compound 105-1, N-((2R)-3-(3-amino-8-azabicyclo[3.2.1]octan-8-yl)-1-(4-(cyclohexyloxy)phenyl)-1,1-difluoro-3-oxopropan-2-yl)-4-(cyclohexylmethoxy) benzenesulfonamide] | < 1 |
| NC1CC2CCC(C1)N2C(=O)[C@H](NS(=O)(=O)c1ccc(OCC2CCCCC2)cc1)C(F)(F)c1ccc(OC2CCCCC2)cc1 (stereo partly drawn) [Compound 105-2, N-((2S)-3-(3-amino-8-azabicyclo[3.2.1]octan-8-yl)-1-(4-(cyclohexyloxy)phenyl)-1,1-difluoro-3-oxopropan-2-yl)-4-(cyclohexylmethoxy)benzenesulfonamide] | 10 to 30 |
